Entries after “also recorded” stand apart in the source; their conditions may differ.
Experiments:
[1] = from reference (8); cited from earlier work
[2] = test system: 453-EGFP cells (MDA-MB-453 human breast cancer cells expressing EGFP); assay: Metastasis therapy with Compound A in Rag2-/-;Il2rg-/- mice challenged i.v. with 453-EGFP cells; type: in vivo; settings: 50 mg/kg per os daily
Description: Rag2^−/−;Il2rg^−/− breeders were kindly given by Drs. T. Nomura and M. Ito of the Central Institute for Experimental Animals (Kawasaki, Japan). Mice were then bred in our animal facilities under sterile conditions. Athymic Crl:CD-1-Foxn1^nu/nu mice (referred to as nude mice) were purchased from Charles River Italy and kept under sterile conditions. Experiments were authorized by the institutional review board of the University of Bologna and done according to Italian and European guidelines.
MDA-MB-453 and BT-474 breast cancer cell lines were originally obtained from by Dr. Serenella M. Pupa (Istituto Nazionale dei Tumori, Milan, Italy). Cell lines were authenticated by DNA fingerprinting on the 11 Nov. 2010 (performed by DSMZ, Braunschweig, Germany). Cells were routinely cultured in Roswell Park Memorial Institute (RPMI) medium supplemented with 10% foetal bovine serum and were maintained at 37° C. in a humidified 5% CO2 atmosphere. All medium constituents were purchased from Invitrogen, Milan, Italy. In order to visualize metastatic cells/lesions, breast cancer cell lines were transfected with a plasmid expressing Enhanced Green Fluorescent Protein (pEGFP-N1, Clontech, Mountain View, Calif.) using Lipofectamine 2000 (Invitrogen). Stable transfectants were selected using G418 (Invitrogen). EGFP expression was monitored by fluorescence microscopy and quantified by cytofluorimetric analysis.
Nine-20-week-old female Rag2^−/−;Il2rg^−/− mice were used throughout this work. Local tumors were induced with 10^7 viable human tumour cells injected either subcutaneously in the right hind leg or in the fat pad of the fourth (abdominal) left mammary gland in 0.2 ml of PBS. Tumor diameters were periodically measured with digital calipers and tumor volumes calculated as […], where a=maximal tumor diameter and b=major tumor diameter perpendicular to a. For intravenous (i.v.) administrations, 2×10^6 cells in 0.4 ml PBS were injected in a tail vein. Nude mice (5-6 week-old) were treated i.v. with anti-asialo GM1 antiserum (Wako, Dusseldorf, Germany), 0.4 ml of a 1:30 dilution in PBS, to deplete NK activity, 24 h prior to the injection of human tumour cells. Pilot experiments were performed to assess for each cell line the time at which experimental metastases could be detected.
Tumor-bearing mice were sacrificed at various times (see Results), depending on tumor and metastasis growth, and were subjected to an accurate necropsy. Lungs were stained with black India ink to better outline metastases and fixed in Fekete's solution. Lung and liver metastases were counted using a dissection microscope. When EGFP-expressing cells were injected, whole mice and dissected organs were carefully examined using a Lightools imaging system (Lightools Research, Encinitas, Calif.) to detect fluorescent metastatic deposits. Quantification of metastatic load in brain and bone marrow was performed by immunofluorescence followed by cytofluorimetric analysis and by Real-Time PCR. Brain was minced with scissors and passed through a 70 μm cell strainer (Becton Dickinson, Bedford, Mass., USA) to obtain a homogeneous cell suspension. Bone marrow was flushed from both femurs in PBS and filtered through a 70 μm strainer. A mouse monoclonal antibody against human HER-2 (clone Neu 24.7, Becton Dickinson, San Jose, Calif., USA) labeled with phycoerythrin was used to quantify human cells by cytofluorometric analysis. Real-Time PCR was performed on genomic DNA extracted with 10 mM Tris-HCl buffer pH 8.3 containing 50 mM KCl, 2.5 mM MgCl2, 0.01% gelatin, 0.45% igepal, 0.45% tween 20 and 120 μg/ml proteinase K (all reagents from Sigma, Milan, Italy) by an overnight incubation at 56° C. followed by […] incubation at 95° C. to inactivate the proteinase K. A sequence of the α-satellite region of the human chromosome 17 was amplified. […]

## Nc1cc(C(F)(F)F)c(-c2cc(N3CCOCC3)nc(N3CCOCC3)n2)cn1 [Compound A, 5-(2,6-di-morpholin-4-yl-pyrimidin-4-yl)-4-trifluoromethyl-pyridin-2-ylamine]
[1]
  penetration of the blood-brain barrier: excellent penetration
[2]; 37 treatments, HER-2-positive cells in dissociated brain (FIG. 2B)
  inhibition in the number of human cells in the brain, HER-2 flow cytometry: > 90%
[2]; 37 treatments, brain metastatic burden by qPCR (FIG. 2A)
  inhibition in the number of human cells in the brain, human-specific qPCR: > 90%
[2]; 37 treatments, visual count of metastatic sites per mouse (FIG. 2C)
  number of bone metastases decreased: 67%
[2]; brain and lungs (FIG. 1B-C)
  growth of 453-EGFP in heavily colonized organs (brain and lungs): strongly inhibited
[2]; brain, bone marrow and liver, p<0.05 at least, Fisher's exact test (FIG. 1A)
  incidence of metastases in different sites: a sizeable proportion of mice were metastasis-free; also recorded: significant inhibition
[2]; different target organs
  reduction of the metastatic burden: highly significant and widespread reduction

From patent US20140213583A1, “PI3K Inhibitor for Use in the Treatment of Bone Cancer or for Preventing Metastatic Dissemination Primary Cancer Cells into the Bone” (NOVARTIS AG, priority 2011, published 2014)
